Experimental data from patent publication US9730446B2, “Herbicidal compositions comprising 4-amino-3-chloro-6-(4-chloro-2-fluoro-3-methoxyphenyl)pyridine-2-carboxylic acid or a derivative thereof and propyzamide” (Dow AgroSciences LLC, priority 2013, dated 2017).

What was measured:
Format in all cases: in vivo
[1] = tested on: winter oilseed rape; test: Field trial, visual crop injury ratings; conditions: varying rates, crop Growth Stage 39-50, 32, 49, and 74 days after treatment, in each case
Method: (§1) Multiple small plot research experiments were conducted to evaluate efficacy and tolerance of winter oilseed rape to compositions described herein. Typical small plots (2-4×4-10 meters (m)) were used in growers' fields under natural conditions with normal commercial cultural practices. Backpack sprayers were used to apply all treatments based on unit area. The methyl ester of formula (I) and propyzamide were tested alone and in combination at varying rates. Application water volume was 150 L/ha. Crop stage was at Growth Stage 39-50. Visual crop injury ratings were collected 32, 49, and 74 days after treatment. […] The reported values are means.

[2] = tested on: GERSS Geranium sp. (cranesbill); test: Field trial, visual weed control in winter oilseed rape
Method: as §1, with “Application water volume was 150 L/ha.” left out, “means. […] The following abbreviations are used in Tables 2-4: • GERSS Geranium sp. (cranesbill) • POAAN Poa annua (annual bluegrass) • VERSS Veronica sp.” for “means.”

[3] = tested on: POAAN Poa annua (annual bluegrass); test: as above
Method: as §1, with “Application water volume was 150 L/ha.” left out, “means. […] The following abbreviations are used in Tables 2-4: • GERSS Geranium sp. (cranesbill) • POAAN Poa annua (annual bluegrass) • VERSS Veronica sp.” for “means.”

[4] = tested on: VERSS Veronica sp. (speedwell); test: as above
Method: as §1, with “Application water volume was 150 L/ha.” left out, “means. […] The following abbreviations are used in Tables 2-4: • GERSS Geranium sp. (cranesbill) • POAAN Poa annua (annual bluegrass) • VERSS Veronica sp.” for “means.”

[5] = tested on: SETFA Setaria faberi Herrm. (giant foxtail); test: Postemergent herbicidal activity, greenhouse; conditions: foliar, 14 d
Method: (§2) Evaluation of Postemergent Herbicidal Activity. Seeds or nutlets of the desired test plant species were planted in Sun Gro Metro-Mix® 360 planting mixture, which typically has a pH of 6.0 to 6.8 and an organic matter content of about 30 percent, in plastic pots with a surface area of 64 square centimeters (cm^2). […] The plants were grown for 7-21 days (d) in a greenhouse with an approximate 15 hour (h) photoperiod which was maintained at about 23-29° C. during the day and 22-28° C. during the night. Nutrients and water were added on a regular basis and supplemental lighting was provided with overhead metal halide 1000-Watt lamps as necessary. The plants were employed for testing when they reached the first or second true leaf stage.
(§3) A weighed amount, determined by the highest rate to be tested, of each test compound was placed in a 25 milliliter (mL) glass vial and was dissolved in 4 mL of a 97:3 volume per volume (v/v) mixture of acetone and dimethyl sulfoxide (DMSO) to obtain concentrated stock solutions. […] The concentrated stock solutions obtained were diluted with 20 mL of an aqueous mixture containing acetone, water, isopropyl alcohol, DMSO, Atplus 411F crop oil concentrate, and Triton® X-155 surfactant in a 48.5:39:10:1.5:1.0:0.02 v/v ratio to obtain spray solutions containing the highest application rates. Additional application rates were obtained by serial dilution of 12 mL of the high rate solution into a solution containing 2 mL of a 97:3 v/v mixture of acetone and DMSO and 10 mL of an aqueous mixture containing acetone, water, isopropyl alcohol, DMSO, Atplus 411F crop oil concentrate, and Triton X-155 surfactant in a 48.5:39:10:1.5:1.0:0.02 v/v ratio to obtain 1/2×, 1/4×, 1/8× and 1/16× rates of the high rate. Compound requirements are based upon a 12 mL application volume at a rate of 187 liters per hectare (L/ha). Formulated compounds were applied to the plant material with an overhead Mandel track sprayer equipped with 8002E nozzles calibrated to deliver 187 L/ha over an application area of 0.503 square meters (m^2) at a spray height of 18 inches (43 cm) above the average plant canopy height. Control plants were sprayed in the same manner with the solvent blank.
(§4) Treatments consisted of the methyl ester of 4-amino-3-chloro-6-(4-chloro-2-fluoro-3-methoxyphenyl)pyridine-2-carboxylic acid (Cmpd 1) as technical grade material and propyzamide (Kerb 50 W) alone and in combination.
(§5) The treated plants and control plants were placed in a greenhouse as described above and watered by subirrigation to prevent wash-off of the test compounds. After 14 d, the condition of the test plants as compared with that of the untreated plants was determined visually and scored on a scale of 0 to 100 percent where 0 corresponds to no injury and 100 corresponds to complete kill.
(§6) Colby's equation was used to determine the herbicidal effects expected from the mixtures (Colby, S. R. Calculation of the synergistic and antagonistic response of herbicide combinations. Weeds 1967, 15, 20-22). More specifically, the following equation was used to calculate the expected activity of mixtures containing two active ingredients, A and B: Expected=A+B−(A×B/100) A=observed efficacy of active ingredient A at the same concentration as used in the mixture; B=observed efficacy of active ingredient B at the same concentration as used in the mixture.

[6] = tested on: VIOTR Viola tricolor L. (wild violet); test: Postemergent herbicidal activity, greenhouse; conditions: foliar, 14 d
Method: as §2, §3, §4, §5, §6

[7] = tested on: AMARE Amaranthus retroflexus L. (redroot pigweed); test: Postemergent herbicidal activity, greenhouse; conditions: foliar, 14 d
Method: as §2, §3, §4, §5, §6

[8] = tested on: IPOHE Ipomoea hederacea (L.) Jacq. (ivyleaf morningglory); test: Postemergent herbicidal activity, greenhouse; conditions: foliar, 14 d
Method: as §2, §3, §4, §5, §6

[9] = tested on: BRSNW Brassica napus (winter oilseed rape); test: Postemergent herbicidal activity, greenhouse; conditions: foliar, 14 d
Method: as §2, §3, §4, §5, §6

[10] = tested on: STEME Stellaria media (L.) Vill. (common chickweed); test: Postemergent herbicidal activity, greenhouse; conditions: foliar, 14 d
Method: as §2, §3, §4, §5, §6

[11] = tested on: POLCO Polygonum convolvulus L. (wild buckwheat); test: Postemergent herbicidal activity, greenhouse; conditions: foliar, 14 d
Method: as §2, §3, §4, §5, §6

[12] = tested on: CHEAL Chenopodium album L. (common lambsquarters); test: Postemergent herbicidal activity, greenhouse; conditions: foliar, 14 d
Method: as §2, §3, §4, §5, §6

[13] = tested on: ABUTH Abutilon theophrasti Medik. (velvetleaf); test: Postemergent herbicidal activity, greenhouse; conditions: foliar, 14 d
Method: as §2, §3, §4, §5, §6

[14] = tested on: EPHHL Euphorbia heterophylla L. (wild poinsettia); test: Postemergent herbicidal activity, greenhouse; conditions: foliar, 14 d
Method: as §2, §3, §4, §5, §6

[15] = tested on: GLXMA Glycine max (volunteer soybean); test: Postemergent herbicidal activity, greenhouse; conditions: foliar, 14 d
Method: as §2, §3, §4, §5, §6

[16] = tested on: CIRAR Cirsium arvense (L.) Scop. (Canada thistle); test: Postemergent herbicidal activity, greenhouse; conditions: foliar, 14 d
Method: as §2, §3, §4, §5, §6

[17] = Propyzamide 250 g ai/ha, 32 DAAA
[18] = Propyzamide 250 g ai/ha, 58 DAAA
[19] = Propyzamide 250 g ai/ha, 80 DAAA
[20] = Propyzamide 500 g ai/ha, 32 DAAA
[21] = Propyzamide 500 g ai/ha, 58 DAAA
[22] = Propyzamide 500 g ai/ha, 80 DAAA
[23] = Propyzamide 750 g ai/ha, 32 DAAA
[24] = Propyzamide 750 g ai/ha, 58 DAAA
[25] = Propyzamide 750 g ai/ha, 80 DAAA

Structure (SMILES): C#CC(C)(C)NC(=O)c1cc(Cl)cc(Cl)c1 [Propyzamide, 3,5-dichloro-N-(1,1-dimethylpropynyl)benzamide]
- Visual crop injury rating [1]: 0 % injury
- % control rated visually, ob (observed) [2, 17]: 5.0%
- % control rated visually, ob (observed) [2, 18]: 17.5%
- % control rated visually, ob (observed) [2, 19]: 22.5%
- % control rated visually, ob (observed) [2, 20]: 20.0%
- % control rated visually, ob (observed) [2, 21]: 35.0%
- % control rated visually, ob (observed) [2, 22]: 28.8%
- % control rated visually, ob (observed) [2, 23]: 18.8%
- % control rated visually, ob (observed) [2, 24]: 25.0%
- % control rated visually, ob (observed) [2, 25]: 33.8%
- % control rated visually, ob (observed) [3, 17]: 12.5%
- % control rated visually, ob (observed) [3, 18]: 12.5%
- % control rated visually, ob (observed) [3, 19]: 45.0%
- % control rated visually, ob (observed) [3, 20]: 15.0%
- % control rated visually, ob (observed) [3, 21]: 67.5%
- % control rated visually, ob (observed) [3, 22]: 95.0%
- % control rated visually, ob (observed) [3, 23]: 37.5%
- % control rated visually, ob (observed) [3, 24]: 92.5%
- % control rated visually, ob (observed) [3, 25]: 98.3%
- % control rated visually, ob (observed) [4, 17]: 43.8%
- % control rated visually, ob (observed) [4, 19]: 100.0%
- % control rated visually, ob (observed) [4, 20]: 60.0%
- % control rated visually, ob (observed) [4, 22]: 100.0%
- % control rated visually, ob (observed) [4, 23]: 54.3%
- % control rated visually, ob (observed) [4, 25]: 100.0%
- % control rated visually, ob (observed) ([5]; Propyzamide 285 g ai/ha): 0%
- % control rated visually, ob (observed) ([5]; Propyzamide 570 g ai/ha): 0%
- % control rated visually, ob (observed) ([6]; Propyzamide 285 g ai/ha): 0%
- % control rated visually, ob (observed) ([6]; Propyzamide 570 g ai/ha): 0%
- % control rated visually, ob (observed) ([7]; Propyzamide 285 g ai/ha): 0%
- % control rated visually, ob (observed) ([7]; Propyzamide 570 g ai/ha): 10%
- % control rated visually, ob (observed) ([8]; Propyzamide 285 g ai/ha): 10%
- % control rated visually, ob (observed) ([8]; Propyzamide 570 g ai/ha): 17%
- % control rated visually, ob (observed) ([9]; Propyzamide 285 g ai/ha): 5%
- % control rated visually, ob (observed) ([9]; Propyzamide 570 g ai/ha): 20%
- % control rated visually, ob (observed) ([10]; Propyzamide 285 g ai/ha): 7%
- % control rated visually, ob (observed) ([10]; Propyzamide 570 g ai/ha): 75%
- % control rated visually, ob (observed) ([11]; Propyzamide 285 g ai/ha): 5%
- % control rated visually, ob (observed) ([11]; Propyzamide 570 g ai/ha): 15%
- % control rated visually, ob (observed) ([12]; Propyzamide 285 g ai/ha): 0%
- % control rated visually, ob (observed) ([12]; Propyzamide 570 g ai/ha): 0%
- % control rated visually, ob (observed) ([13]; Propyzamide 285 g ai/ha): 5%
- % control rated visually, ob (observed) ([13]; Propyzamide 570 g ai/ha): 0%
- % control rated visually, ob (observed) ([14]; Propyzamide 285 g ai/ha): 0%
- % control rated visually, ob (observed) ([14]; Propyzamide 570 g ai/ha): 0%
- % control rated visually, ob (observed) ([15]; Propyzamide 285 g ai/ha): 10%
- % control rated visually, ob (observed) ([15]; Propyzamide 570 g ai/ha): 15%
- % control rated visually, ob (observed) ([16]; Propyzamide 285 g ai/ha): 0%
- % control rated visually, ob (observed) ([16]; Propyzamide 570 g ai/ha): 0%
